Experimental data as given in ChEMBL document CHEMBL1132725, “Evaluation of new L-thiocitrulline derivatives as inhibitors of nitric oxide synthase” (Bioorg Med Chem Lett, 2000).

Columns and labels:
[1] = biological target: T1, Nitric oxide synthase, inducible (Mus musculus) (UniProt P29477); experiment: Compound was tested for the percent inhibition of nitric oxide synthase (i) using [14C]L-citrulline as radioligand.; conditions: concentration not given here
T1 sequence (whole entry): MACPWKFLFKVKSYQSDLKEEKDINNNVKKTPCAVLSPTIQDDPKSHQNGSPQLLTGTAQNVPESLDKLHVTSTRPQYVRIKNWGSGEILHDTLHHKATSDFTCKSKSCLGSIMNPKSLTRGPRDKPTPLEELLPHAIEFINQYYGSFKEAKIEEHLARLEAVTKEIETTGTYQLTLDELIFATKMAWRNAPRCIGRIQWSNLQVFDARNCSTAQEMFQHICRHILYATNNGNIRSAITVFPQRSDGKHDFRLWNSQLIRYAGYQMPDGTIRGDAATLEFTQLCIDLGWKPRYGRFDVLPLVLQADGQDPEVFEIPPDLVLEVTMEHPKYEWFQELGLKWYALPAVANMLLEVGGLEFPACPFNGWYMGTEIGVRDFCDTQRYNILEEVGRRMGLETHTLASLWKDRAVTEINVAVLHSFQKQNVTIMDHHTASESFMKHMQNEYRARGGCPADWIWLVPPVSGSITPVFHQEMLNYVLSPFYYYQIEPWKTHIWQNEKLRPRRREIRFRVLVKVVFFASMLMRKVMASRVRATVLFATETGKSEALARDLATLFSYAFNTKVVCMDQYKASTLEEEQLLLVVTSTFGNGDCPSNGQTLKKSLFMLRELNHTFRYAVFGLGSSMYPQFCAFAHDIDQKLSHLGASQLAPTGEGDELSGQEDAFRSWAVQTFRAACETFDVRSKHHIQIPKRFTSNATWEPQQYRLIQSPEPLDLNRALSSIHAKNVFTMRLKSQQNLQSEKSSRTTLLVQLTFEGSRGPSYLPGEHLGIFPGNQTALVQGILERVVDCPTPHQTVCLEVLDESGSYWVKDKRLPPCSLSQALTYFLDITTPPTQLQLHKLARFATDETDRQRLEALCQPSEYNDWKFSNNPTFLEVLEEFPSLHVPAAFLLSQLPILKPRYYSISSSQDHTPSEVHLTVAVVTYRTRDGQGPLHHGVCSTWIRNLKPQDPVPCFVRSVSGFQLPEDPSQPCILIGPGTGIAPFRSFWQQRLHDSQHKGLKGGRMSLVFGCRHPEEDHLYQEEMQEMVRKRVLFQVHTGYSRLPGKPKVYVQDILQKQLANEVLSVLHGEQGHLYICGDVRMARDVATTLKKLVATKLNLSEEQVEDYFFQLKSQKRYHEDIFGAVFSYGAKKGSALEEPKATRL

[2] = biological target: T2, Nitric oxide synthase 3 (Bos taurus) (UniProt P29473); experiment: Compound was tested for the percent inhibition of nitric oxide synthase (e) using [14C]L-citrulline as radioligand.; conditions: concentration not given here
T2 sequence (whole entry): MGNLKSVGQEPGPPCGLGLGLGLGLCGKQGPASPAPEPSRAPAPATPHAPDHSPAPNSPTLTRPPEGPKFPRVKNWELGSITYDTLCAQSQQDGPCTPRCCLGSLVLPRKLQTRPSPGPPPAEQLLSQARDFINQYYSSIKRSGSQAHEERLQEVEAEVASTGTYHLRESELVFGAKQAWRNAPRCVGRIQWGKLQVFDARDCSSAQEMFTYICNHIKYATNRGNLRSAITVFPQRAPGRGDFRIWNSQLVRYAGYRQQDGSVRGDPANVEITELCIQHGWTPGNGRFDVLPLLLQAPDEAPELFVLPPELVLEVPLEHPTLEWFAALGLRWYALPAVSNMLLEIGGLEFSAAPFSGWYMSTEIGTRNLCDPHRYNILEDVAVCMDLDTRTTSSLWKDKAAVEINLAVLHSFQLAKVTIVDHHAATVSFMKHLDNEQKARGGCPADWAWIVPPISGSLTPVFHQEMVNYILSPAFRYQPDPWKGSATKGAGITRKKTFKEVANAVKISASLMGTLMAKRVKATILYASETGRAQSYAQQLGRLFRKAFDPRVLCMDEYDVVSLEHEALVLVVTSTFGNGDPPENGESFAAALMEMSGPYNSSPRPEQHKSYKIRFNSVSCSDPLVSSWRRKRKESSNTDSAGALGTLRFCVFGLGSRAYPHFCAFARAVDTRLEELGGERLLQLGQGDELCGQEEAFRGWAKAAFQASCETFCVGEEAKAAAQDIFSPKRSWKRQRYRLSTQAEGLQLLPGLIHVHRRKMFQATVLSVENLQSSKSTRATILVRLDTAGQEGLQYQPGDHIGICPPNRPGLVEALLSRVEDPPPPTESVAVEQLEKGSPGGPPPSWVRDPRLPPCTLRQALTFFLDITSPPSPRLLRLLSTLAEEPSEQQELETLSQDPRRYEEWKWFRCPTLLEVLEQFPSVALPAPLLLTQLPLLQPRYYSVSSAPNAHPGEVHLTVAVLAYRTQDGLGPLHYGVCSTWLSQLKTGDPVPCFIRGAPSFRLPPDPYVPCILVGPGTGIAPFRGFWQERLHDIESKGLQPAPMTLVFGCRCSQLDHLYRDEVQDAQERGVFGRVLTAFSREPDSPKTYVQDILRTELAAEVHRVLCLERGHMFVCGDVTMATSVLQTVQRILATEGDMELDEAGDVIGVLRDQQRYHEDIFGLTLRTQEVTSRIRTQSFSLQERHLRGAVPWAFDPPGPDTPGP

[3] = biological target: T3, Nitric oxide synthase, inducible (Mus musculus, UniProt P29477); experiment: Compound was tested for the competitive inhibition of nitric oxide synthase (i) using [14C]L-citrulline as radioligand. value ranges from 3.6-9 uM
T3 sequence (P29477 whole entry): T1 sequence (whole entry)

[4] = biological target: Nitric oxide synthase 1 (Rattus norvegicus) (UniProt P29476); experiment: Compound was tested for the percent inhibition of nitric oxide synthase (n) using [14C]L-citrulline as radioligand.; conditions: concentration not given here
Nitric oxide synthase 1 = Nitric oxide synthase 1 (Rattus norvegicus, UniProt P29476); experiment: Compound was tested for the competitive inhibition of nitric oxide synthase (n) using [14C]L-citrulline as radioligand.; value ranges from 0.06-2 uM
Sequence of Nitric oxide synthase 1 (P29476 whole entry): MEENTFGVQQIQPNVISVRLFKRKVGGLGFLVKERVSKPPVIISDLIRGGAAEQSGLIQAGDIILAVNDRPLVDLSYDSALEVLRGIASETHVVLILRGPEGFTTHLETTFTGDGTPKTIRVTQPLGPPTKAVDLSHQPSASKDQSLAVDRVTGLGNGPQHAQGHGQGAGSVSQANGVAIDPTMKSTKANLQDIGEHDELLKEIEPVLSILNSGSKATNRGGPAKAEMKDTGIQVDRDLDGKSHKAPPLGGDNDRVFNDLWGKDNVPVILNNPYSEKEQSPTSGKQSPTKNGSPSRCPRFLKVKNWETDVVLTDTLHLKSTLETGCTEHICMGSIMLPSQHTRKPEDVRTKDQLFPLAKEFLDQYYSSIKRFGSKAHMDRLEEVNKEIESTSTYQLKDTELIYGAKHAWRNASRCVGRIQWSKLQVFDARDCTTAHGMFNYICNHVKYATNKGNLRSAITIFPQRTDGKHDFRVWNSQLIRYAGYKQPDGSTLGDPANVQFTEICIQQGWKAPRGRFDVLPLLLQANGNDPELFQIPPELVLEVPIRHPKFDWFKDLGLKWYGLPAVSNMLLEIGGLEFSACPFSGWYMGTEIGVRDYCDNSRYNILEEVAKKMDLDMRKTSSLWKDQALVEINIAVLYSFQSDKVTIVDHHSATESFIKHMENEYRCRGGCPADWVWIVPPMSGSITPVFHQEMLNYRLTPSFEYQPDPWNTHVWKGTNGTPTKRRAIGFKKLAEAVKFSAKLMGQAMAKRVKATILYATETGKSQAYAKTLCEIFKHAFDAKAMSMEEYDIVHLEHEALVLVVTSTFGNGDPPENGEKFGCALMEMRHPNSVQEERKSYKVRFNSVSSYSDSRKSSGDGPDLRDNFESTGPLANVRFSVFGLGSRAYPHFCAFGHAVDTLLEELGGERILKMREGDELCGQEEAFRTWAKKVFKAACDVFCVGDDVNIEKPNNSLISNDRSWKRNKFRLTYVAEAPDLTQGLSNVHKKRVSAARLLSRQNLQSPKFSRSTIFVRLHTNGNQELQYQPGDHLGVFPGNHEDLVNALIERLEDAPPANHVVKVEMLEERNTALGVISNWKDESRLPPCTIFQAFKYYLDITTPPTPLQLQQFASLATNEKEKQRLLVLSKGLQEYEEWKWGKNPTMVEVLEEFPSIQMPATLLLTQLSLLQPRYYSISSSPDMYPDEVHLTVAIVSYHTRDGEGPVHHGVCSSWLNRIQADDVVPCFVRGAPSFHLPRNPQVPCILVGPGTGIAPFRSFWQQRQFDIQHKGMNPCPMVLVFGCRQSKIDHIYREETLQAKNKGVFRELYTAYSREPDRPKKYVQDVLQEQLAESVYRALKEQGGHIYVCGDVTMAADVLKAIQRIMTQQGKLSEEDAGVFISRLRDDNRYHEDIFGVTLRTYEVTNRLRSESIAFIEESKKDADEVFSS

Sequence of Nitric oxide synthase 1 (Rattus norvegicus) (P29476 whole entry): as above

Structure (SMILES)	inhibition [1] [%]	inhibition [2] [%]	Ki [3] [nM]	inhibition [4] [%]	Ki (Nitric oxide synthase 1) [nM]
CCOP(=S)(NCCC[C@H](N)C(=O)O)OCC	< 10				
N/C(S)=N/CCC[C@H](N)C(=O)O	> 99	> 99	3600	> 99	60
CSC(=NCCC[C@H](N)C(=O)O)SC	56	46		39	
CS/C(S)=N/CCC[C@H](N)C(=O)O	54	25		27	
